Assay results published in PMC11239390, “Glycoside-metabolizing oxidoreductase D3dgpA from human gut bacterium” (Frontiers in Bioengineering and Biotechnology, 2024).

T1: D3dgpA (human intestinal bacterium PUE, UniProt A0A3Q9WWX8)
T1 construct: gene dgpA; full length, 367 residues; His6-tag; pET-duet 1 (EcoRI/SalI), E. coli BL21 (DE3), Ni-NTA; about 45 kD; hexamer in solution; co-purifies with NAD(H)
T1 sequence (A0A3Q9WWX8 1-367): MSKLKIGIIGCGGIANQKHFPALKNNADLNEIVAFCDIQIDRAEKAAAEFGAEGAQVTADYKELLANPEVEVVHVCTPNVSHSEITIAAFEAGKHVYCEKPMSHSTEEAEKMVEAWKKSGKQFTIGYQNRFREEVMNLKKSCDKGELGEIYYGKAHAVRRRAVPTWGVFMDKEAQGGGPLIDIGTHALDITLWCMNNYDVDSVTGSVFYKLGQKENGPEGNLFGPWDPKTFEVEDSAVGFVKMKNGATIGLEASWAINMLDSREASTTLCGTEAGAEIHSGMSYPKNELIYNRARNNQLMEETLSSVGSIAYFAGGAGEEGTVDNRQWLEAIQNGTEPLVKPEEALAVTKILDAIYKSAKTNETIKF


Legend:
D3dgpA [1] = biological target: T1, D3dgpA; assay: HPLC of […]”-oxo-puerarin formation with and without monosaccharide; assay type: biochemical; details: 400 eq puerarin and methyl β-D-3-oxo-glucopyranoside, 800 eq monosaccharide to enzyme; 5 mM HEPES pH 7.5, 36.5°C, 10 min
D3dgpA [2] = biological target: T1, D3dgpA; assay: HPLC analysis of nucleotide co-purified with enzyme; assay type: binding; details: bound in purified enzyme as isolated
[3] = biological target: D3dgpA, Gfo/Idh/MocA family glycoside oxidoreductase (dgpA cloned from Dorea sp. MRG-IFC3) (Dorea sp. MRG-IFC3); assay: not stated; purified His6-tagged D3dgpA in solution; the method is shown only in Supplementary Figure S5
purified protein = substrate: O=c1c(-c2ccc(O)cc2)coc2c([C@@H]3O[C@H](CO)[C@@H](O)[C@H](O)[C@H]3O)c(O)ccc12; assay: purified protein; assay type: biochemical, human intestinal bacterium PUE; details: co-substrate 760 μM methyl β-D-3-oxo-glucopyranoside, 5 mM HEPES pH 7.5, 5 mM NaCl, 36.5°C

Molecule | relative inhibition (D3dgpA [1]) | other results
OC[C@H]1OC(O)[C@H](O)[C@@H](O)[C@@H]1O (stereo partly drawn) [D-glucose] | D-glucose exhibited the most inhibitory effects on the oxidation of puerarin | 
NC(=O)c1ccc[n+]([C@@H]2O[C@H](COP(=O)(O)OP(=O)(O)OC[C@H]3O[C@@H](n4cnc5c(N)ncnc54)[C@H](O)[C@@H]3O)[C@@H](O)[C@H]2O)c1 [NAD^+] |  | HPLC analysis of nucleotide co-purified with enzyme (D3dgpA [2]): The purified D3dgpA was found to contain an almost equimolar amount of NAD(H)
O[C@@H]1[C@@H](O)[C@@H]2OC[C@@H](O2)[C@H]1O [levoglucosan] | decreased in the order of D-glucose > methyl ß-glucoside > methyl α-glucoside ≈ levoglucosan | 
CO[C@H]1O[C@H](CO)[C@@H](O)[C@H](O)[C@H]1O [methyl α-glucopyranoside] | decreased in the order of D-glucose > methyl ß-glucoside > methyl α-glucoside ≈ levoglucosan | 
CO[C@@H]1O[C@H](CO)[C@@H](O)[C@H](O)[C@H]1O [methyl β-glucopyranoside] | decreased in the order of D-glucose > methyl ß-glucoside > methyl α-glucoside ≈ levoglucosan | 
D3dgpA, Gfo/Idh/MocA family glycoside oxidoreductase (dgpA cloned from Dorea sp. MRG-IFC3) (enzyme) |  | stoichiometry N [3]: 6
D3dgpA (human intestinal bacterium PUE) (protein, full length, 367 residues; His6-tag; pET-duet 1 (EcoRI/SalI), E. coli BL21 (DE3), Ni-NTA; about 45 kD; hexamer in solution; co-purifies with NAD(H)) MSKLKIGIIGCGGIANQKHFPALKNNADLNEIVAFCDIQIDRAEKAAAEFGAEGAQVTADYKELLANPEVEVVHVCTPNVSHSEITIAAFEAGKHVYCEKPMSHSTEEAEKMVEAWKKSGKQFTIGYQNRFREEVMNLKKSCDKGELGEIYYGKAHAVRRRAVPTWGVFMDKEAQGGGPLIDIGTHALDITLWCMNNYDVDSVTGSVFYKLGQKENGPEGNLFGPWDPKTFEVEDSAVGFVKMKNGATIGLEASWAINMLDSREASTTLCGTEAGAEIHSGMSYPKNELIYNRARNNQLMEETLSSVGSIAYFAGGAGEEGTVDNRQWLEAIQNGTEPLVKPEEALAVTKILDAIYKSAKTNETIKF |  | Km (purified protein): 250 µM; kcat (purified protein): 32 s⁻¹
